This is an account of results in ChEMBL document CHEMBL1128701 (J Med Chem, 1995).

The target in this assay is T1, Progesterone receptor (Homo sapiens, UniProt P06401).
T1 sequence (P06401 whole entry): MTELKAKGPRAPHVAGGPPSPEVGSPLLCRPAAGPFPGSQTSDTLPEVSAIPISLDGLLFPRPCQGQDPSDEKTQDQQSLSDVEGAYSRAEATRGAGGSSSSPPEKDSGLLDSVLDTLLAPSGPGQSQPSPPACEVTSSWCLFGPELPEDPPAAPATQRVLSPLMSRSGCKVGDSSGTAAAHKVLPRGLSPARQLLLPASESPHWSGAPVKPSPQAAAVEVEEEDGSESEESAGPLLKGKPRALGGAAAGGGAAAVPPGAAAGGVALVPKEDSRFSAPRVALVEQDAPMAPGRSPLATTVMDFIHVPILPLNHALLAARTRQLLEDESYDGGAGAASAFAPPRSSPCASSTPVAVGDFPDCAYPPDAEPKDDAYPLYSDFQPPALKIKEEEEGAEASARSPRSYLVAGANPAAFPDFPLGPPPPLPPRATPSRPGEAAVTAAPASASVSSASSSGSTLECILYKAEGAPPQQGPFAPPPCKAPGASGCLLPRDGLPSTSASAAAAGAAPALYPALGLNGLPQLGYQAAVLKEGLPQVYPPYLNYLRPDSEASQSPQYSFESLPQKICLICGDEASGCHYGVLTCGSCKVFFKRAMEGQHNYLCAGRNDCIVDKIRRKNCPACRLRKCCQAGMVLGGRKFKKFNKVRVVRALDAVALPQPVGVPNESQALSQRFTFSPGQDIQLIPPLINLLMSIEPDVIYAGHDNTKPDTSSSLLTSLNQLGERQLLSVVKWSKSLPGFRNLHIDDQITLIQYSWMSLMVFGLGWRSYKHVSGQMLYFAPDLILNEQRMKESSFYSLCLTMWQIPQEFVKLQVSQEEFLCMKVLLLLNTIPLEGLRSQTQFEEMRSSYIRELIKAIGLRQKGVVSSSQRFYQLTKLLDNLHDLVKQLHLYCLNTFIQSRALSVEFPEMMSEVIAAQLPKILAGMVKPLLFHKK
Kind of assay: Binding affinity against Progesterone receptor in human TE85 osteosarcoma cells was determined using (Z)-[125I]-17-alpha-(2-iodovinyl)-19-nor-testosterone as radioligand.

The IC50 is the concentration that inhibits the measured activity by half. Lower therefore signals greater potency. Take `O=C(c1ccc(Cl)c(Cl)c1)N1CC=CC(c2ccccc2)=N1`: the IC50 is more than 1000 nM. Next, `Clc1ccc(CN2CCCC(c3ccccc3)=N2)cc1Cl`: more than 1000 nM; `O=C(c1ccc(Cl)c(Cl)c1)N1CCCC(c2ccc(Cl)cc2)=N1`: 84 nM; `CCCCc1ccc(C2=NN(C(=O)c3ccc(Cl)c(Cl)c3)CCC2)cc1`: more than 1000 nM. Then `CC(C)(C)c1ccc(C(=O)N2CCCC(c3ccccc3)=N2)cc1`, with more than 1000 nM; and `O=C1CCC(c2ccccc2)=NN1Cc1ccc(Cl)c(Cl)c1`, with 170 nM; and `Cc1ccc(C(=O)N2CCCC(c3ccccc3)=N2)cc1`, with 416 nM. As for `CC1CCN(C(=O)c2ccc(Cl)c(Cl)c2)N=C1c1ccccc1` (centres undefined), the IC50 was 24 nM. On to `O=C(c1ccc(Cl)c(Cl)c1)N1CCCC(c2ccc(F)cc2)=N1`, for which the IC50 turned out to be 48.2 nM. On to `O=C(c1ccc(F)c(F)c1)N1CCCC(c2ccccc2)=N1`, for which the 50% inhibitory concentration (IC50) was found to be 515 nM. The compound `O=C(c1ccc(Cl)c(C(F)(F)F)c1)N1CCCC(c2ccccc2)=N1` gave an IC50 of 270 nM. `S=C(c1ccc(Cl)c(Cl)c1)N1CCCC(c2ccccc2)=N1` registered an IC50 of 17.5 nM.

Consider `COc1ccc(C2=NN(C(=O)c3ccc(Cl)c(Cl)c3)CCC2)cc1`, for which the IC50 was more than 1000 nM. Take `O=C(c1ccc(Cl)cc1)N1CCCC(c2ccccc2)=N1`: the IC50 is 521 nM. In turn, `O=C(c1ccc(Cl)c(Cl)c1)N1CCCC(c2ccccc2)=N1` yielded an IC50 of 62.4 nM. For the compound `CC1CC(c2ccccc2)=NN(C(=O)c2ccc(Cl)c(Cl)c2)C1` (centres undefined), the IC50 is 98 nM. Take `O=C(c1ccc(F)c(Br)c1)N1CCCC(c2ccccc2)=N1`: the IC50 was found to be 38.2 nM. Compared with the last compound, the IC50 is about 2.6-fold lower.

Regarding `O=S(=O)(c1ccc(Cl)c(Cl)c1)N1CCCC(c2ccccc2)=N1`, the 50% inhibitory concentration (IC50) was more than 1000 nM.

`COc1ccc(C(=O)N2CCCC(c3ccccc3)=N2)cc1` returned an IC50 of more than 1000 nM. For `CC1(C)CC(c2ccccc2)=NN(C(=O)c2ccc(Cl)c(Cl)c2)C1`, the 50% inhibitory concentration (IC50) amounted to 75.3 nM.

`O=C(c1cccc(Cl)c1)N1CCCC(c2ccccc2)=N1`: the IC50 is 70.6 nM. The compound `O=C(c1ccccc1)N1CCCC(c2ccccc2)=N1` showed a half-maximal inhibitory concentration (IC50) of more than 1000 nM. `CCc1ccc(C2=NN(C(=O)c3ccc(Cl)c(Cl)c3)CCC2)cc1`: the 50% inhibitory concentration (IC50) stood at 570 nM.

Compound `O=C(c1ccc(Br)cc1)N1CCCC(c2ccccc2)=N1` displayed an IC50 of more than 1000 nM.
